Test results from patent US9113629B2, “4-amino-6-(4-substituted-phenyl)-picolinates and 6-amino-2-(4-substituted-phenyl)-pyrimidine-4-carboxylates and their use as herbicides” (DOW AGROSCIENCES LLC, priority 2013, dated 2015).
Like-named read-outs stand apart in the source and are kept apart here.

Assays:
[1] = tested on: test plant species in Direct Seeded Rice; test: Postemergence herbicidal activity in direct seeded rice (Table 13); type: in vivo; conditions: for GR50 BRAPP / GR80 BRAPP / GR50 CYPSS / GR80 CYPSS / GR50 ECHSS / GR80 ECHSS / GR50 LEFSS / GR80 LEFSS / GR20 ORYSS / GR50 SCPJU / GR80 SCPJU / GR50 SEBEX / GR80 SEBEX: probit analysis; for GR20 ORYSS: ORYSS: Oryza sativa (crop); for pest or weed control at 35 g/ha / pest or weed control at 70 g/ha: post-emergence, 504 h; for pest or weed control at 35 g/ha: 35 g ai/ha; for pest or weed control at 70 g/ha: 70 g ai/ha
Procedure, shortened: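 Greenhouse-grown plants at the second or third true leaf stage were sprayed postemergence at 187 L/ha with compound in acetone/DMSO (final 16.2%/0.5%) plus aqueous Agri-dex crop oil concentrate; controls got solvent blank. Injury was rated visually 0–100% after 20-22 days, and GR20, GR50, GR80 and GR90 derived by probit analysis.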

[2] = tested on: CIRAR: Canada thistle (Cirsium arvense); test: Post-emergent Test III, herbicidal activity in wheat and barley; type: in vivo; conditions: Table 8, 21 d
Procedure, shortened: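 Plants at the second to third true-leaf stage, grown in a greenhouse at about 18/17 °C with a 14 h photoperiod, were sprayed post-emergence at 187 L/ha with the high rate and ½× to 1/16× serial dilutions in an acetone/DMSO/crop-oil/surfactant carrier. Injury was rated visually at 21 d on a 0–100% scale, and GR20–GR90 were derived by probit analysis.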

[3] = BRAPP: broadleaf signalgrass, Brachiaria platyphylla
[4] = CYPSS: sedge (Cyperus difformis, esculentus, iria)
[5] = ECHSS: barnyardgrass (Echinochloa crus-galli), junglerice (Echinochloa colonum)
[6] = LEFSS: sprangletop (Leptochloa chinensis, Leptochloa dubia)
[7] = SCPJU: Japanese bulrush, Scirpus juncoides
[8] = SEBEX: hemp sesbania, Sesbania exaltata
[9] = BRAPP: broadleaf signalgrass, Brachiaria platyphylla, read-out: Visual Growth Reduction (%) 21 Days After Application BRAPP
[10] = CYPSS: sedge (Cyperus difformis, esculentus, iria), read-out: Visual Growth Reduction (%) 21 Days After Application CYPSS
[11] = ECHSS: barnyardgrass (Echinochloa crus-galli), junglerice (Echinochloa colonum), read-out: Visual Growth Reduction (%) 21 Days After Application ECHSS
[12] = LEFSS: sprangletop (Leptochloa chinensis, Leptochloa dubia), read-out: Visual Growth Reduction (%) 21 Days After Application LEFSS
[13] = ORYSS: Oryza sativa, read-out: Visual Growth Reduction (%) 21 Days After Application ORYSS
[14] = SCPJU: Japanese bulrush, Scirpus juncoides, read-out: Visual Growth Reduction (%) 21 Days After Application SCPJU
[15] = SEBEX: hemp sesbania, Sesbania exaltata, read-out: Visual Growth Reduction (%) 21 Days After Application SEBEX

Row | SMILES | GR50 BRAPP [1, 3] | GR80 BRAPP [1, 3] | GR50 CYPSS [1, 4] | GR80 CYPSS [1, 4] | GR50 ECHSS [1, 5] | GR80 ECHSS [1, 5] | GR50 LEFSS [1, 6] | GR80 LEFSS [1, 6] | GR20 ORYSS [1] | GR50 SEBEX [1, 8] | GR80 SEBEX [1, 8] | pest or weed control at 35 g/ha [1, 9] | pest or weed control at 70 g/ha [1, 9] | pest or weed control at 35 g/ha [1, 10] | pest or weed control at 70 g/ha [1, 10] | pest or weed control at 35 g/ha [1, 11] | pest or weed control at 70 g/ha [1, 11] | pest or weed control at 35 g/ha [1, 12] | pest or weed control at 70 g/ha [1, 12] | pest or weed control at 35 g/ha [1, 13] | other results
1 | COc1c(N)nc(-c2ccc(Br)c(F)c2F)nc1C(=O)O [Compound 8] | 4 g ai/ha | 9 g ai/ha | 1 g ai/ha | 1 g ai/ha | 2 g ai/ha | 6 g ai/ha | >70 g ai/ha | >70 g ai/ha | 2 g ai/ha | 3 g ai/ha | 5 g ai/ha | 95 to 100% | 95 to 100% | 95 to 100% | 95 to 100% | 95 to 100% | 95 to 100% | 0 to 29% | 30 to 44% | 75 to 84% | GR50 SCPJU [1, 7]: 1 g ai/ha; GR80 SCPJU [1, 7]: 1 g ai/ha; pest or weed control at 70 g/ha [1, 13]: 85 to 94%; pest or weed control at 35 g/ha [1, 14]: 95 to 100%; pest or weed control at 70 g/ha [1, 14]: 95 to 100%; pest or weed control at 35 g/ha [1, 15]: 95 to 100%; pest or weed control at 70 g/ha [1, 15]: 95 to 100%
2 | Nc1cc(-c2ccc(Br)c(F)c2)nc(C(=O)O)c1Cl [Compound 110, 4-Amino-6-(4-bromo-3-fluorophenyl)-3-chloropicolinic acid] | – | – | – | – | – | – | – | – | – | – | – | – | – | – | – | – | – | – | – | – | pest or weed control at 35 g/ha ([2]; Cirsium arvense, post-emergence, 504 h, 35 g ai/ha, post-emergent, read-out: Visual Growth Reduction (%) 21 Days After Application CIRAR): 75 to 84%; pest or weed control at 70 g/ha ([2]; Cirsium arvense, post-emergence, 504 h, 70 g ai/ha, post-emergent, read-out: Visual Growth Reduction (%) 21 Days After Application CIRAR): 75 to 84%; GR50 CIRAR ([2]; dose for 50 percent growth reduction, probit analysis): 19 g ai/ha; GR80 CIRAR ([2]; dose for 80 percent growth reduction, probit analysis): 52 g ai/ha
3 | COC(=O)c1nc(-c2ccc(Br)c(F)c2F)nc(N)c1OC [Compound 122, methyl 6-amino-2-(4-bromo-2,3-difluorophenyl)-5-methoxypyrimidine-4-carboxylate] | 5 g ai/ha | 42 g ai/ha | 1 g ai/ha | 1 g ai/ha | 6 g ai/ha | 47 g ai/ha | >70 g ai/ha | >70 g ai/ha | 70 g ai/ha | 1 g ai/ha | 1 g ai/ha | 75 to 84% | 85 to 94% | 95 to 100% | 95 to 100% | 75 to 84% | 85 to 94% | 0 to 29% | 0 to 29% | 0 to 29% | GR50 SCPJU [1, 7]: 1 g ai/ha; GR80 SCPJU [1, 7]: 1 g ai/ha; pest or weed control at 70 g/ha [1, 13]: 0 to 29%; pest or weed control at 35 g/ha [1, 14]: 95 to 100%; pest or weed control at 70 g/ha [1, 14]: 95 to 100%; pest or weed control at 35 g/ha [1, 15]: 95 to 100%; pest or weed control at 70 g/ha [1, 15]: 95 to 100%
4 | Nc1c(F)c(-c2ccc(C(F)(F)F)c(F)c2)nc(C(=O)O)c1Cl [Compound 134] | 3 g ai/ha | 12 g ai/ha | 6 g ai/ha | 13 g ai/ha | 1 g ai/ha | 1 g ai/ha | 6 g ai/ha | 15 g ai/ha | 5 g ai/ha | 1 g ai/ha | 1 g ai/ha | 95 to 100% | 95 to 100% | 95 to 100% | 95 to 100% | 95 to 100% | 95 to 100% | 95 to 100% | 95 to 100% | 60 to 74% | GR50 SCPJU [1, 7]: 1 g ai/ha; GR80 SCPJU [1, 7]: 1 g ai/ha; pest or weed control at 70 g/ha [1, 13]: 85 to 94%; pest or weed control at 70 g/ha [1, 14]: 95 to 100%; pest or weed control at 35 g/ha [1, 15]: 95 to 100%; pest or weed control at 70 g/ha [1, 15]: 95 to 100%
5 | COC(=O)c1nc(-c2ccc(C(F)(F)F)c(F)c2)c(F)c(N)c1Cl [Compound 165] | 12 g ai/ha | 27 g ai/ha | 19 g ai/ha | 67 g ai/ha | 10 g ai/ha | 24 g ai/ha | 24 g ai/ha | 56 g ai/ha | 44 g ai/ha | 1 g ai/ha | 1 g ai/ha | 85 to 94% | 95 to 100% | 75 to 84% | 75 to 84% | 85 to 94% | 95 to 100% | 0 to 29% | 95 to 100% | 0 to 29% | pest or weed control at 70 g/ha [1, 13]: 30 to 44%; pest or weed control at 35 g/ha [1, 15]: 95 to 100%; pest or weed control at 70 g/ha [1, 15]: 95 to 100%
6 | Nc1c(F)c(-c2ccc(Cl)c(F)c2)nc(C(=O)O)c1Cl [Compound 217] | 3 g ai/ha | 5 g ai/ha | 5 g ai/ha | 11 g ai/ha | 1 g ai/ha | 1 g ai/ha | 1 g ai/ha | 3 g ai/ha | 10 g ai/ha | 1 g ai/ha | 1 g ai/ha | 95 to 100% | 95 to 100% | 95 to 100% | 95 to 100% | 95 to 100% | 95 to 100% | 95 to 100% | 95 to 100% | 45 to 59% | GR50 SCPJU [1, 7]: 1 g ai/ha; GR80 SCPJU [1, 7]: 1 g ai/ha; pest or weed control at 70 g/ha [1, 13]: 75 to 84%; pest or weed control at 35 g/ha [1, 14]: 95 to 100%; pest or weed control at 70 g/ha [1, 14]: 95 to 100%; pest or weed control at 35 g/ha [1, 15]: 95 to 100%; pest or weed control at 70 g/ha [1, 15]: 95 to 100%
